Results on one compound are retold here after US20190076434A1, “METHODS OF TREATING PERIPHERAL VASCULAR DISEASES, INCLUDING SYSTEMIC SCLEROSIS VASCULOPATHY” (UNIVERSITY OF UTAH RESEARCH FOUNDATION, priority 2016, published 2019).

For data set [1], the system named is patients with SSc. Kind of data set: Example 2: seated brachial artery blood pressure and mean arterial pressure, BH4 vs placebo. Format: in vivo, human. The following applies: five hours after oral BH4 10 mg/kg. As to the method:
Experimental Design. A controlled, randomized, double-blind, crossover experimental design with two conditions, BH4 and placebo, was used, with a washout period of ≥5 days between conditions. Subjects consumed a standardized breakfast and were administered oral BH4 (10 mg/kg) or placebo five hours prior arrival at the laboratory. Measurements were taken at the same time of day to eliminate any diurnal effects and after having abstained from food (not including the standardized breakfast), alcohol, caffeine, cardiovascular-acting medications, and exercise for ≥12 hours. In premenopausal women, measurements were performed during the early follicular phase of the menstrual cycle.
Blood Pressure. Seated BA blood pressure measurements were made with a semi-automated BP device (Tango+, SunTech, Morrisville, N.C.) in triplicate after 5 min in the upright seated position with the arm at heart level and under quiet, comfortable, ambient (˜22° C.) laboratory conditions. Mean arterial pressure (MAP) was calculated using the equation: ⅓ systolic blood pressure+⅔ diastolic blood pressure.
Statistics. Statistics were performed using SPSS software (IBM, Chicago, Ill.). Paired, one-tailed t-tests were used to identify significant changes in measured variables between placebo and BH4 conditions. Statistical significance was set at P<0.05 for all analyses. Unless indicated otherwise, data are presented as Means±SEM.

Data set [2] has as its system patients with SSc.
In data set [3] the test system is patients with SSc. The experiment in a line: Example 2: brachial artery flow-mediated dilation (FMD), double-blind randomized crossover, BH4 vs placebo. Format: in vivo, human. An excerpt: Methods: Subjects. Eleven subjects with SSc (3 men and 8 women) were recruited from the University of Utah SSc clinic to participate in the current study. All subjects had either a diagnosis of SSc as accepted by the American College of Rheumatology or early SSc as described by Leroy and […]. All subjects gave their written informed consent before participation. Protocol approval and written informed consent were obtained, according to the University of Utah and Salt Lake City Veterans Affairs Medical Center (VAMC) Institutional Review Board, in accordance with the principles outlined in the Declaration of Helsinki. All data collection took place in the Utah Vascular Research Laboratory at the Salt Lake City VAMC Geriatric Research, Education, and Clinical Center. Experimental Design. […] Subjects consumed a standardized breakfast and were administered oral BH4 (10 mg/kg) or placebo five hours prior arrival at the laboratory. Measurements were taken at the same time of day to eliminate any diurnal effects and after having abstained from food (not including the standardized breakfast), alcohol, caffeine, cardiovascular-acting medications, and exercise for ≥12 hours. […] Heart rate was monitored from a standard 3-lead ECG. […] FMD was quantified as the maximal change in BA diameter after cuff release. NMD was quantified as the maximal change in BA diameter after sublingual nitroglycerin supplementation. […] Shear rate was calculated according to the equation: shear rate (s-1)=(Vmean·8)/vessel diameter. Blood flow was calculated as per the equation: blood flow (mL·min)=(blood velocity×π)×(vessel diameter/2)2×(60). Cumulative shear rate cumulative area under the curve at the time of peak BA vasodilation was integrated with the trapezoidal rule and calculated as per the following equation: τ([…]]). Forearm vascular conductance was calculated according to the equation: […]. Forearm vascular resistance was calculated according to the equation: […]. […] Paired, one-tailed t-tests were used to identify significant changes in measured variables between placebo and BH4 conditions. […]

Setting [4] is: one SSc subject, BH4 vs placebo, data not shown.
[5] abbreviates: 11 SSc patients, five hours after oral BH4 10 mg/kg, P<0.05.

For `C[C@H](O)[C@H](O)[C@H]1CNc2nc(N)[nH]c(=O)c2N1` [BH4, tetrahydrobiopterin], in the data set with patients with SSc [1] (Means ± SEM, P>0.05 vs placebo), the “casual seated diastolic blood pressure” value came to 68±2 mmHg and the “casual seated systolic blood pressure” value was found to be 109±5 mmHg. Besides, in the data set on patients with SSc [1] (P<0.05 vs placebo), the “MAP, difference in the BH4 condition compared to placebo” value was roughly −2 mmHg. For the same compound, in the data set with patients with SSc [2] (human, in vivo), the blood pressure is recorded as 125/77. For the same compound, the “FMD, increase compared to placebo” value in the data set on patients with SSc [2] (one SSc subject, BH4 vs placebo, FIG. 7A) is 73%. Moreover, the “peak hyperemia, increase compared to placebo” value in the data set with patients with SSc [2] (one SSc subject, BH4 vs placebo, FIG. 7B) stood at 63%. The “area under the curve for hyperemia, increase compared to placebo” value in the data set on patients with SSc [2] (one SSc subject, BH4 vs placebo, FIG. 7C) is on record as roughly 160%. Besides, in the data set with patients with SSc [2] (setting [4]), the “resting blood flow in the forearm, increase compared to placebo” value is roughly 20% and the “resting blood flow in the leg, increase compared to placebo” value worked out at 34%. Besides, in the data set on patients with SSc [3] (setting [5]), the “absolute FMD, improvement vs. placebo” value was 44% and the “percentage FMD, improvement vs. placebo” value stood at 48%. The “FMD value in the BH4 condition” value with patients with SSc [3] (second study, placebo FMD 3.2%, corresponds to highest tertile of FMD) is given as 5.6%.
